This is an account of results in patent publication US11505558B1, “Antiviral heterocyclic compounds” (Enanta Pharmaceuticals, Inc., priority 2019, dated 2022).

Test [1] relates to genotype A, "Long" strain RSV. Put plainly: RSV-A assay (CPE, ATPlite readout in Hep-2 cells). The format is cell-based. The note with it: human respiratory syncytial virus, HEp-2, Hep-2 cells, genotype A "Long" strain RSV, MOI 0.1; read-out: Human RSV-A (“Long” strain) EC50. The method, boiled down: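 Protection from RSV-induced cytopathic effect, measured as ATPlite luminescence after 5 days, gave EC50 values. Assay used genotype A Long strain at MOI 0.1 on Hep-2 cells seeded at 8,000/well in DMEM growth media with 10% FBS; compounds tested as 2-fold dilutions in duplicate.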
In general terms: Cellular ATP, detected with luciferase, serves as a proxy for viable cell number.

Test [2] relates to recombinant HMPV CAN97-83 (MPV-GFP1). Put plainly: HMPV antiviral assay (MPV-GFP1 eGFP fluorescence in Vero E6 cells). Type of test: cell-based. The note with it: human metapneumovirus, Vero C1008, 120 h, read-out: HMPV EC50. How it is done: HMPV antiviral activity was evaluated using a recombinant version of HMPV CAN97-83 engineered to contain the coding sequence for enhanced green fluorescence protein (eGFP) in the 3′ end of the virus genome (MPV-GFP1, ViraTree). Vero E6 cells ([…]) were seeded at a density of 12,000 cells/100 μL/well into 96-well cell plates one day prior to the assay. On the day of screening, the cell culture medium was aspirated from the wells and cells were washed twice with serum-free Eagle's Modified Essential Medium (EMEM, ATCC #) containing 1% penicillin-streptomycin (Invitrogen) (SF-EMEM). Cell washes were performed by dispensing 100 μL SF-EMEM per well and immediately aspirating the wash medium from the well. Following the second wash step, serum-free OptiMEM (Invitrogen, Cat No.) (SF-OptiMEM) containing 0.5 μg/mL TPCK-Trypsin (VENDOR) and 1% penicillin-streptomycin was added to the cells at 50 μL/well. Compounds were added into the 96-well plates using a JANUS automated liquid handling system (VENDOR). Compounds were initially diluted 1:50 into an intermediate 96-well plate containing SF-OptiMEM prior to transfer to the assay plate (25 μL/well). Each of the test compounds were tested in duplicate wells at final concentrations starting from 8 μM or 2 μM using ½ stepwise dilutions for a total of 8 points. Virus infection was performed by preparing a working stock of MPV-GFP1 at a multiplicity of infection (MOI) equal to 0.05/25 μL and aliquoting 25 μL of virus inoculum to the compound and positive control wells. SF-OptiMEM was added (25 μL/well) to the appropriate wells to serve as a virus-free negative control for the assay. The final DMSO concentration of all wells is 0.5%. Plates were incubated at 32° C., 5% CO2 for 5 days.
After 5 days incubation, eGFP fluorescence intensity was measured at […] using a Spectramax i3X plate reader (VENDOR). Percent viral inhibition was calculated using the following equation: y=[[…]−(XQ/XP)]×100 Where XQ is the fluorescence intensity measured in a well containing recombinant MPV-GFP1-infected, compound-treated cells and XP is the average fluorescence intensity measured in the wells containing untreated cells infected with recombinant virus. EC50 values were then calculated by non-linear regression using a four parameter curve logistic equation. The curve fit model employed was XLFit Dose Response One Site Model 200: y=(A+(B/(1+((x/C)^D)))) Where A is the minimum y value, B is the maximum y value, C is the log EC50 value, and D is the slope factor. […] EC50 ranges are as follows: A<0.5 μM; B>0.5 μM.

What is called EC50 is the concentration that produces a half-maximal response.

Some results are limits rather than exact numbers.

With `C[C@]1(C(N)=O)COc2c1cc([C@@](O)(CNC(=O)c1ccc(OC3CC3)c(OC3CC3)c1)C(F)(F)F)nc2-c1ccc(F)c(C(F)(F)F)c1` [Example 96], the EC50 in test [1] was under 200 nM; in test [2], under 500 nM.

Turning to `Cc1cncc(-c2cc(C(=O)NC[C@](O)(c3cc4c(c(-c5ccc(F)cc5)n3)OC[C@]4(C)C(N)=O)C(F)(F)F)ccc2OC2CC2)c1` [Example 103], the EC50 in test [1] is under 200 nM; in test [2], over 500 nM.

In the case of `C[C@]1(C(N)=O)COc2c1cc([C@@](O)(CNC(=O)c1ccc(OC3CC3)c(-c3cncc(C(F)(F)F)c3)c1)C(F)(F)F)nc2-c1ccc(F)cc1` [Example 104], the EC50 in test [1] is over 200 nM; in test [2], over 500 nM.

Take `C[C@]1(C(N)=O)COc2c1cc([C@@](O)(CNC(=O)c1ccc(OC3CC3)c(-c3cccc(C(F)(F)F)n3)c1)C(F)(F)F)nc2-c1ccc(F)cc1` [Example 110]: the results for the EC50 in test [1] and in test [2] were under 200 nM and over 500 nM, respectively.

For the compound `C[C@]1(C(N)=O)COc2c1cc([C@@](O)(CNC(=O)c1ccc(OC3CC3)c(-c3cnccn3)c1)C(F)(F)F)nc2-c1ccc(F)cc1` [Example 114], the EC50 was under 200 nM in test [1] and over 500 nM in test [2].

Regarding `C[C@]1(C(N)=O)COc2c1cc([C@@](O)(CNC(=O)c1ccc(OC3CC3)c(-c3ccncn3)c1)C(F)(F)F)nc2-c1ccc(F)cc1` [Example 116], the EC50 was under 200 nM in test [1] and over 500 nM in test [2].

Turning to `C[C@]1(C(N)=O)COc2c1cc([C@@](O)(CNC(=O)c1ccc(OC3CC3)c(C3CC3)c1)C(F)(F)F)nc2-c1ccc(F)cc1` [Example 123], the figures for the EC50 in test [1] and in test [2] were under 200 nM and over 500 nM, respectively.

For `C[C@]1(C(N)=O)COc2c1cc([C@@](O)(CNC(=O)c1ccc(OC3CC3)c(-c3ncco3)c1)C(F)(F)F)nc2-c1ccc(F)cc1` [Example 124], the figures for the EC50 in test [1] and in test [2] were under 200 nM and over 500 nM, respectively.

Turning to `Cc1ncc(-c2cc(C(=O)NC[C@](O)(c3cc4c(c(-c5ccc(F)cc5)n3)OC[C@]4(C)C(N)=O)C(F)(F)F)ccc2OC2CC2)s1` [Example 126], the figures for the EC50 in test [1] and in test [2] were under 200 nM and over 500 nM, respectively.

In the case of `C[C@]1(C(N)=O)COc2c1cc([C@@](O)(CNC(=O)c1ccc(OC3CC3)c(-c3ncccn3)c1)C(F)(F)F)nc2-c1ccc(F)cc1` [Example 127], the EC50 in test [1] was under 200 nM; in test [2], over 500 nM.

On to `C[C@]1(C(N)=O)COc2c1cc([C@@](O)(CNC(=O)c1ccc(OC3CC3)c(N3CCC3)c1)C(F)(F)F)nc2-c1ccc(F)cc1` [Example 136], for which the EC50 in test [1] was under 200 nM; in test [2] it was over 500 nM.

In the case of `Cc1ncc(-c2cc(C(=O)NC[C@](O)(c3cc4c(c(-c5ccc(F)cc5)n3)OC[C@]4(C)C(N)=O)C(F)(F)F)ccc2OC2CC2)cn1` [Example 137], the EC50 in test [1] was under 200 nM; in test [2], under 500 nM.

As to `Cc1cnc(-c2ccc(C(=O)NC[C@](O)(c3cc4c(c(-c5ccc(F)cc5)n3)OC[C@]4(C)C(N)=O)C(F)(F)F)cc2OC2CC2)o1` [Example 179], the EC50 in test [1] was under 200 nM; in test [2], over 500 nM.

With `Cc1ncoc1-c1ccc(C(=O)NC[C@](O)(c2cc3c(c(-c4ccc(F)cc4)n2)OC[C@]3(C)C(N)=O)C(F)(F)F)cc1OC1CC1` [Example 180], the EC50 in test [1] was under 200 nM; in test [2], over 500 nM.

For the compound `COc1cc(C(=O)NC[C@](O)(c2cc3c(c(-c4ccc(F)cc4)n2)OC[C@]3(C)C(N)=O)C(F)(F)F)ccc1-c1ocnc1C` [Example 183], the results for the EC50 in test [1] and in test [2] were under 200 nM and over 500 nM, respectively.

For the compound `Cc1nc(-c2ccc(C(=O)NC[C@](O)(c3cc4c(c(-c5ccc(F)cc5)n3)OC[C@]4(C)C(N)=O)C(F)(F)F)cc2OC2CC2)co1` [Example 196], the figures for the EC50 in test [1] and in test [2] were over 200 nM and over 500 nM, respectively.

As to `COc1cc(C(=O)NC[C@](C)(O)c2cc3c(c(-c4ccc(F)cc4)n2)OC[C@]3(C)C(N)=O)cc2cccnc12` [Example 219], the figures for the EC50 in test [1] and in test [2] were under 200 nM and over 500 nM, respectively.

Turning to `C[C@]1(C(N)=O)COc2c1cc([C@@](O)(CNC(=O)c1cc(Cl)c3ncccc3c1)C(F)(F)F)nc2-c1ccc(F)cc1` [Example 221], the EC50 is under 200 nM in test [1] and under 500 nM in test [2].

Regarding `COc1cc(C(=O)NC[C@](O)(c2cc3c(c(-c4ccc(F)cc4)n2)OC[C@]3(C)C(N)=O)C(F)(F)F)cc2ccc(C)nc12` [Example 222], the EC50 was under 200 nM in test [1] and under 500 nM in test [2].

Regarding `Cc1ccc2cc(C(=O)NC[C@](O)(c3cc4c(c(-c5ccc(F)cc5)n3)OC[C@]4(C)C(N)=O)C(F)(F)F)cc(OC3CC3)c2n1` [Example 223], the EC50 was under 200 nM in test [1] and under 500 nM in test [2].

Regarding `C[C@]1(C(N)=O)COc2c1cc([C@@](O)(CNC(=O)c1cc(OC3CC3)c3ncccc3c1)C(F)(F)F)nc2-c1ccccc1` [Example 228], the values for the EC50 in test [1] and in test [2] were under 200 nM and over 500 nM, respectively.

Take `C[C@]1(C(N)=O)COc2c1cc([C@@](O)(CNC(=O)c1ccc3nnccc3c1)C(F)(F)F)nc2-c1ccc(F)cc1` [Example 230]: the results for the EC50 in test [1] and in test [2] were under 200 nM and over 500 nM, respectively.

Turning to `C[C@]1(C(N)=O)COc2c1cc([C@@](O)(CNC(=O)c1ccc3cnccc3c1)C(F)(F)F)nc2-c1ccc(F)cc1` [Example 232], the EC50 was under 200 nM in test [1] and over 500 nM in test [2].

Consider `Cc1cnc2c(O)cc(C(=O)NC[C@](O)(c3cc4c(c(-c5ccc(F)cc5)n3)OC[C@]4(C)C(N)=O)C(F)(F)F)cc2c1` [Example 252], for which the EC50 in test [1] is under 200 nM; in test [2] it was over 500 nM.

In the case of `COc1cc(C(=O)NC[C@](O)(c2cc3c(c(-c4ccc(F)cc4)n2)OC[C@]3(C)C(N)=O)C(F)(F)F)cc2cc(C)cnc12` [Example 255], the EC50 in test [1] is under 200 nM; in test [2] it was under 500 nM.

`COc1cc(C(=O)NC[C@](O)(c2cc3c(c(-c4ccc(F)cc4)n2)OC[C@]3(C)C(N)=O)C2CC2)cc2cc(C)cnc12` [Example 256]: the results for the EC50 in test [1] and in test [2] were under 200 nM and under 500 nM, respectively.

For the compound `COc1cc(C(=O)NC[C@](O)(c2cc3c(c(-c4ccc(F)c(Cl)c4)n2)OC[C@]3(C)C(N)=O)C(F)(F)F)cc2cc(C)cnc12` [Example 257], the figures for the EC50 in test [1] and in test [2] were under 200 nM and under 500 nM, respectively.

For the compound `CCc1cnc2c(OC)cc(C(=O)NC[C@](O)(c3cc4c(c(-c5ccc(F)cc5)n3)OC[C@]4(C)C(N)=O)C(F)(F)F)cc2c1` [Example 262], the EC50 in test [1] is under 200 nM; in test [2], over 500 nM.

On to `C[C@](O)(CNC(=O)c1cc(OC2CC2)c2ncccc2c1)c1cc2c(c(-c3ccc(F)cc3)n1)OC[C@]2(C)C(N)=O` [Example 265], for which the EC50 is under 200 nM in test [1] and under 500 nM in test [2].

For `C[C@]1(C(N)=O)COc2c1cc([C@@](O)(CNC(=O)c1ccc3ncccc3c1)C(F)(F)F)nc2-c1ccc(F)cc1` [Example 269], the EC50 in test [1] was under 200 nM; in test [2], under 500 nM.

As for `C[C@]1(C(N)=O)COc2c1cc([C@@](O)(CNC(=O)c1cc(OC3CC3)c3ncccc3c1)C1CC1)nc2-c1ccc(F)cc1` [Example 280], the EC50 in test [1] was under 200 nM; in test [2], under 500 nM.

`C[C@]1(C(N)=O)COc2c1cc([C@@](O)(CNC(=O)c1cc(Cl)c3ncccc3c1)C1CC1)nc2-c1ccc(F)cc1` [Example 281]: the EC50 in test [1] is under 200 nM; in test [2], under 500 nM.

For `C[C@@H](O)COc1cc(C(=O)NC[C@](O)(c2cc3c(c(-c4ccc(F)cc4)n2)OC[C@]3(C)C(N)=O)C(F)(F)F)cc2cccnc12` [Example 287], the EC50 in test [1] was over 200 nM; in test [2], over 500 nM.

As for `C[C@@H](O)COc1ccc(C(=O)NC[C@](O)(c2cc3c(c(-c4ccc(F)cc4)n2)OC[C@]3(C)C(N)=O)C(F)(F)F)cc1OC1CC1` [Example 289], the EC50 in test [1] was under 200 nM; in test [2], over 500 nM.

For `COc1cc(C(=O)NC[C@](O)(c2cc3c(c(-c4ccc(F)cc4)n2)OC[C@]3(C)C(N)=O)C(F)(F)F)ccc1OC[C@@H](C)O` [Example 290], the EC50 was under 200 nM in test [1] and under 500 nM in test [2].
